Data from ChEMBL document CHEMBL4325916, “Isoform selective PLD inhibition by novel, chiral 2,8-diazaspiro[4.5]decan-1-one derivatives” (Bioorg Med Chem Lett, 2018).

Key:
Phospholipase D1 [1] = target: T1, Phospholipase D1 (Homo sapiens, UniProt Q13393); test: Inhibition of PLD1 in human Calu1 cells; assay type: cell-based
T1 sequence (Q13393 whole entry): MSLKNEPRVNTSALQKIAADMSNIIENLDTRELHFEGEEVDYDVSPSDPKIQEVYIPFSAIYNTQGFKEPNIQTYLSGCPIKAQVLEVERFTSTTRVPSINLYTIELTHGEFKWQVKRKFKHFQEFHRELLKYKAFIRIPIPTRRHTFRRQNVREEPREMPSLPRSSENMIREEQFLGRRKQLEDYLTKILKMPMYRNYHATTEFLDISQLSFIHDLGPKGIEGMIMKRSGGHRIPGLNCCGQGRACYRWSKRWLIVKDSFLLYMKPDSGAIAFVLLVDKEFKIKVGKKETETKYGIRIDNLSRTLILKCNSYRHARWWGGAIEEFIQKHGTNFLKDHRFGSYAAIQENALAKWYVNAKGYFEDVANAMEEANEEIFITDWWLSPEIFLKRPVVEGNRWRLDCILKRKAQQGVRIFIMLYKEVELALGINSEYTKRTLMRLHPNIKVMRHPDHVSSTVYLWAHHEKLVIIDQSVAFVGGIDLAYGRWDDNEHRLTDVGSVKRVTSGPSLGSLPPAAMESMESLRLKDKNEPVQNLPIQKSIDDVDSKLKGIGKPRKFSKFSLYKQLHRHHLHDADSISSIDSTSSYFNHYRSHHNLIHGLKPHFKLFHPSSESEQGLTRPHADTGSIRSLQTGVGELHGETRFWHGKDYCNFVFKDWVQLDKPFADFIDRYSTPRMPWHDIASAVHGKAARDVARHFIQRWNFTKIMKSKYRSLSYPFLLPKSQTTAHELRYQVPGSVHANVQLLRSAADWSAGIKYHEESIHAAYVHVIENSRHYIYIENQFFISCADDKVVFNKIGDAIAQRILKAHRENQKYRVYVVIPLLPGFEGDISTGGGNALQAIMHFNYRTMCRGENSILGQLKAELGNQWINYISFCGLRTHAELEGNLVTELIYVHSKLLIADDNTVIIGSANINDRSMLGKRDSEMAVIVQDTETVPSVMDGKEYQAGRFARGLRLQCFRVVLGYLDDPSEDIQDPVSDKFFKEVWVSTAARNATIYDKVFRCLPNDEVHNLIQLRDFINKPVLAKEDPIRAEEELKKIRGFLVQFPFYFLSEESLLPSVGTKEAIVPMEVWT

Phospholipase D2 [2] = target: T2, Phospholipase D2 (Homo sapiens, UniProt O14939); test: Inhibition of GFP-fused PLD2 (unknown origin) expressed in HEK293 cells by cellular assay; assay type: cell-based
[3] = […] clearance in rat at […], iv administered as cassette dose; assay type: ADME, organism-based; conditions: in vivo
[4] = Fraction unbound in rat brain; assay type: ADME, tissue-based
[5] = Volume of distribution at steady state in rat at […], iv administered as cassette dose; assay type: ADME, organism-based; conditions: in vivo, read-out: Vdss
[6] = Half life in rat at […], iv administered as cassette dose; assay type: ADME, organism-based; conditions: in vivo
[7] = Fraction unbound in human plasma; assay type: ADME, cell-free
[8] = Fraction unbound in rat plasma; assay type: ADME, cell-free
Homo sapiens = organism: Homo sapiens; test: Selectivity ratio of IC50 for […] (unknown origin) to IC50 for […] (unknown origin)
Phospholipase D2 [9] = target: T2, Phospholipase D2
Description: Inhibition of PLD2 (unknown origin)

Phospholipase D1 [10] = target: T1, Phospholipase D1
Description: Inhibition of PLD1 (unknown origin)

T2 sequence (O14939 whole entry, the tested form may be a part): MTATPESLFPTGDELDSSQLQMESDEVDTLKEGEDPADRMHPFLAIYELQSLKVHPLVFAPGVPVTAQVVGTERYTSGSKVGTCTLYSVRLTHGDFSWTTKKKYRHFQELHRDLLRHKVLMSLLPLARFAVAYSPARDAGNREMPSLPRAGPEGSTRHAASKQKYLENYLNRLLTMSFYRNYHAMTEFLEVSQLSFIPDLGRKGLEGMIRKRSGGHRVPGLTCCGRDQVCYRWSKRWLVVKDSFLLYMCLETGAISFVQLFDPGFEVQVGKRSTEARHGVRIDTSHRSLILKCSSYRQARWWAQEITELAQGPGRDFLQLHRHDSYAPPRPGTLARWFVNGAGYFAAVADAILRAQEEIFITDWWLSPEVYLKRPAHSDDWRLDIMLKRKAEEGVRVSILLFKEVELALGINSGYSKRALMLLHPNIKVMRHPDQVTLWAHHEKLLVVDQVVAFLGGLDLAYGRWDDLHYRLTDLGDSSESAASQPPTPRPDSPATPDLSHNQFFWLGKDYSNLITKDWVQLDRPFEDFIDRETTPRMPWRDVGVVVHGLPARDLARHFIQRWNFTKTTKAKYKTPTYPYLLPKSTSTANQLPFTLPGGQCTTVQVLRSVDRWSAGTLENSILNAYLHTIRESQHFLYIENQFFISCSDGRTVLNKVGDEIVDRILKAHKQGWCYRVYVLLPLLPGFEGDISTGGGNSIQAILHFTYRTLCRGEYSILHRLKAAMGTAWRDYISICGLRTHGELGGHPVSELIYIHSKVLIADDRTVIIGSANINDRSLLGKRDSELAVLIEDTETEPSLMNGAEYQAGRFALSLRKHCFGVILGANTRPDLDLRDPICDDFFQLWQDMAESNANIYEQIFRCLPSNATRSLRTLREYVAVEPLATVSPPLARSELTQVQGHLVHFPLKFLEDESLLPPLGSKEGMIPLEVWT

Row | Fu [4] [%] | Fu [7] [%] | Fu [8] [%] | SMILES | IC50 (Phospholipase D1 [1]) [nM] | IC50 (Phospholipase D2 [2]) [nM] | further results
1 | 2.7 | 10.8 | 24.6 | O=C(NCCN1CCC2(CC1)C(O)=NC[C@H]2c1ccc(F)cc1)c1ccc(F)cc1 | – | – | CLH [3]: 250 mL/min/kg; Vd [5]: 56 L/kg; half-life [6]: 3.2 h
2 | 2.6 | 12.2 | 31.4 | O=C(NCCN1CCC2(CC1)C(O)=NC[C@H]2c1ccc(F)cc1)c1cnc2ccccc2c1 | – | – | –
3 | 0.4 | 12.4 | 19.8 | O=C(NCCN1CCC2(CC1)C(=O)NC[C@H]2c1ccc(F)cc1)c1cc2ccccc2[nH]1 | 21 | 2.5 | CLH [3]: 340 mL/min/kg; Vd [5]: 80 L/kg; half-life [6]: 3.63 h
4 | 0.3 | 4.5 | 6.1 | C[C@@H](CN1CCC2(CC1)C(=O)NC[C@H]2c1ccc(F)cc1)NC(=O)c1ccc2ccccc2c1 | 820 | 26 | –

Second part, the compound before the results:

Row | SMILES | Fu [4] [%] | Fu [7] [%] | Fu [8] [%] | IC50 (Phospholipase D1 [1]) [nM] | IC50 (Phospholipase D2 [2]) [nM] | further results
5 | C[C@@H](CN1CCC2(CC1)C(=O)NC[C@@H]2c1ccc(F)cc1)NC(=O)c1ccc(F)cc1 | – | – | – | 1700 | 2800 | –
6 | C[C@@H](CN1CCC2(CC1)C(=O)NC[C@@H]2c1ccc(F)cc1)NC(=O)c1cc2ccccc2[nH]1 | – | – | – | 16 | 140 | –
7 | C[C@@H](CN1CCC2(CC1)C(=O)NC[C@H]2c1ccc(F)cc1)NC(=O)c1ccc(F)cc1 | – | – | – | 250 | 210 | –
8 | C[C@@H](CN1CCC2(CC1)C(=O)NC[C@H]2c1ccc(F)cc1)NC(=O)C#Cc1ccccc1 | – | – | – | 16 | 150 | –
9 | C[C@@H](CN1CCC2(CC1)C(=O)NC[C@@H]2c1ccc(F)cc1)NC(=O)C#Cc1ccccc1 | – | – | – | 320 | 4000 | –
10 | C[C@@H](CN1CCC2(CC1)C(=O)NC[C@H]2c1ccc(F)cc1)NC(=O)c1cc2ccccc2[nH]1 | 0.4 | 13.6 | 13 | 1 | 12 | –
11 | O=C(NCCN1CCC2(CC1)C(=O)NC[C@@H]2c1ccc(F)cc1)c1cc2ccccc2[nH]1 | – | – | – | 320 | 43 | –
12 | O=C(C#Cc1ccccc1)NCCN1CCC2(CC1)C(=O)NC[C@H]2c1ccc(F)cc1 | 1.3 | 13.8 | 16 | 1200 | 70 | –
13 | O=C(NCCN1CCC2(CC1)C(=O)NCN2Cc1cccnc1)c1ccc2ccccc2c1 | – | – | – | – | – | Ratio IC50 (Homo sapiens): > 80; IC50 (Phospholipase D2 [9]): 360 nM; IC50 (Phospholipase D1 [10]): > 30000 nM
14 | O=C(C#Cc1ccccc1)NCCN1CCC2(CC1)C(=O)NC[C@@H]2c1ccc(F)cc1 | – | – | – | 6400 | 810 | –
